Source: patent US9956293B2, “Targeted therapeutics” (Madrigal Pharmaceuticals, Inc., priority 2014, dated 2018)

test system: HER2; test: HER2 degradation assay with BT-474 cell line (Example 12, FACS); type: cell-based; details: Homo sapiens, BT-474; SDC-TRAPs of the 41st table
Description: HER2 Degradation Assay with BT-474 Cell Line
HER2 has emerged as a key target for anticancer drugs due to its intrinsic involvement in the phosphatidylinositol-3-kinase-Akt/protein kinase B (PI3K-Akt) and the mitogen-activated protein kinase (MAPK) pathways, both of which suppress apoptosis and promote tumor cell survival, gene transcription, angiogenesis, cellular proliferation, migration, mitosis, and differentiation. The degradation of HER2 is a measure of efficacy of anticancer therapeutics that target Hsp90. Accordingly, the SDC-TRAP molecules of the invention that comprise a binding moiety that binds Hsp90 were tested in the following HER2 degradation assay.
BT-474 cells (human breast cancer cell line ATCC HTB-20) were obtained from ATCC and seeded into 12-well tissue culture plates at 0.2×10^6/1.8 mL/well. […] Each test compound was titrated in 4-fold dilutions from 5 μM to 78 nM with DMSO and 200 μL of the titration was added to each well of the cell plate. The DMSO final concentration was 0.2%. Cells were incubated overnight at 37° C. in 5% CO2.
Media was decanted from the plate, cells were washed 1× in PBS. 400 μL trypsin (EDTA) per well was added, and the cells were incubated for 2 to 3 minutes. Cells were collected into FACS tubes containing 1 ml culture medium to neutralize the trypsin and were centrifuged for 5 minutes at 1200 rpm. Supernatant was decanted and the cells were resuspended in 5 μL FITC (anti HER2/nu)/200 μL staining buffer (1×PBS+1% FBS+0.05% Sodium Azide)/tube. Controls were […] IgG isotype control and staining buffer only. Tubes were incubated for 30 minutes in the dark at room temperature. 1 mL staining buffer was added to each tube and the tubes were centrifuged for 6 minutes at 1200 rpm. The supernatant was decanted and 300 μL staining buffer was added to each tube, which was store at 4° C. for FACS (cytometer) analysis. The cytometer readout was normalized and the potency of each compound is evaluated with IC50 calculated with XLfit™ software.

| SMILES | IC50 [nM] |
| --- | --- |
| CC(C)c1cc(-c2nnc(O)n2-c2ccc(N3CCN(C(=O)c4ccc(CCc5c[nH]c6nc(N)[nH]c(=O)c56)cc4)CC3)cc2)c(O)cc1O [SDC-TRAP-0082, 2-amino-5-(4-(4-(4-(3-(2,4-dihydroxy-5-isopropylphenyl)-5-hydroxy-4H-1,2,4-triazol-4-yl)phenyl)piperazine-1-carbonyl)phenethyl)-3H-pyrrolo[2,3-d]pyrimidin-4(7H)-one] | 1040 |
| CC(C)c1cc(-c2nnc(O)n2-c2ccc3c(c2)nc(C2CCN(C(=O)c4ccc(CCc5c[nH]c6nc(N)[nH]c(=O)c56)cc4)CC2)n3C)c(O)cc1O [SDC-TRAP-0102, 2-amino-5-(4-(4-(5-(3-(2,4-dihydroxy-5-isopropylphenyl)-5-hydroxy-4H-1,2,4-triazol-4-yl)-1-methyl-1H-benzo[d]imidazol-2-yl)piperidine-1-carbonyl)phenethyl)-3H-pyrrolo[2,3-d]pyrimidin-4(7H)-one] | > 5000 |

same assay, conditions: Homo sapiens, BT-474; SDC-TRAPs of the 52nd table

| SMILES | IC50 [nM] |
| --- | --- |
| COc1ccc(-c2cnoc2-c2cc(OC)c(OC)c(OC)c2)cc1OC(=O)N1CCN(c2ccc(-n3c(O)nnc3-c3cc(C(C)C)c(O)cc3O)cc2)CC1 [SDC-TRAP-0099, 2-methoxy-5-(5-(3,4,5-trimethoxyphenyl)isoxazol-4-yl)phenyl-4-(4-(3-(2,4-dihydroxy-5-isopropylphenyl)-5-hydroxy-4H-1,2,4-triazol-4-yl)phenyl)piperazine-1-carboxylate] | 677 |

same assay, conditions: Homo sapiens; BT-474 cells

| IC50 [nM] | SMILES |
| --- | --- |
| > 10000 | CC(C)c1cc(-c2nnc(O)n2-c2ccc3c(ccn3CCOC(=O)Nc3cccc4c3CN(C3CCC(=O)NC3=O)C4=O)c2)c(O)cc1O (stereo not drawn) [SDC-TRAP-0122, 2-(5-(3-(2,4-dihydroxy-5-isopropylphenyl)-5-hydroxy-4H-1,2,4-triazol-4-yl)-1H-indol-1-yl)ethyl (2-(2,6-dioxopiperidin-3-yl)-1-oxoisoindolin-4-yl)carbamate] |
| 1180 | CCNC(=O)c1nnc(-c2cc(C(C)C)c(O)cc2O)n1-c1ccc(Oc2ccc(C(=O)N[C@@H](CC(C)C)C(=O)Nc3cccc4c3CN(C3CCC(=O)NC3=O)C4=O)cc2)cc1 (stereo partly drawn) [SDC-TRAP-0191, 5-(2,4-dihydroxy-5-isopropylphenyl)-4-(4-(4-(((2S)-1-((2-(2,6-dioxopiperidin-3-yl)-1-oxoisoindolin-4-yl)amino)-4-methyl-1-oxopentan-2-yl)carbamoyl)phenoxy)phenyl)-N-ethyl-4H-1,2,4-triazole-3-carboxamide] |
| 493 | CCNC(=O)c1nnc(-c2cc(C(C)C)c(O)cc2O)n1-c1ccc(CN2CCC(C(=O)N3CCC[C@H]3C(=O)Nc3cccc4c3CN(C3CCC(=O)NC3=O)C4=O)CC2)cc1 (stereo partly drawn) [SDC-TRAP-0164, 5-(2,4-dihydroxy-5-isopropylphenyl)-4-(4-((4-((2S)-2-((2-(2,6-dioxopiperidin-3-yl)-1-oxoisoindolin-4-yl)carbamoyl)pyrrolidine-1-carbonyl)piperidin-1-yl)methyl)phenyl)-N-ethyl-4H-1,2,4-triazole-3-carboxamide] |
| 657 | CCNC(=O)c1nnc(-c2cc(C(C)C)c(O)cc2O)n1-c1ccc(CN2CCC(C(=O)N3CCC(OC(=O)Nc4cccc5c4CN(C4CCC(=O)NC4=O)C5=O)CC3)CC2)cc1 (stereo not drawn) [SDC-TRAP-0123, 1-(1-(4-(3-(2,4-Dihydroxy-5-isopropylphenyl)-5-(ethylcarbamoyl)-4H-1,2,4-triazol-4-yl)benzyl)piperidine-4-carbonyl)piperidin-4-yl (2-(2,6-dioxopiperidin-3-yl)-1-oxoisoindolin-4-yl)carbamate] |
| 9670 | CCNC(=O)c1nnc(-c2cc(C(C)C)c(O)cc2O)n1-c1ccc(C(=O)N(C)CCCOC(=O)Nc2cccc3c2CN(C2CCC(=O)NC2=O)C3=O)cc1 (stereo not drawn) [SDC-TRAP-0135, 3-(4-(3-(2,4-dihydroxy-5-isopropylphenyl)-5-(ethylcarbamoyl)-4H-1,2,4-triazol-4-yl)-N-methylbenzamido)propyl(2-(2,6-dioxopiperidin-3-yl)-1-oxoisoindolin-4-yl)carbamate] |

More lines, now with the values behind:

| SMILES | IC50 [nM] |
| --- | --- |
| CC(C)c1cc(-c2nnc(O)n2-c2ccc3c(ccn3CCOCCN(C)C(=O)CCn3cc(F)c(=O)[nH]c3=O)c2)c(O)cc1O [SDC-TRAP-0050, N-(2-(2-(5-(3-(2,4-dihydroxy-5-isopropylphenyl)-5-hydroxy-4H-1,2,4-triazol-4-yl)-1H-indol-1-yl)ethoxy)ethyl)-3-(5-fluoro-2,4-dioxo-3,4-dihydropyrimidin-1(2H)-yl)-N-methylpropanamide] | > 5000 |
| CCNC(=O)c1nnc(-c2cc(C(C)C)c(O)cc2O)n1-c1ccc(CN2CCC(C(=O)N3CCC(n4cc(-c5cnc(N)c(O[C@H](C)c6c(Cl)ccc(F)c6Cl)c5)cn4)CC3)CC2)cc1 [SDC-TRAP-0134, (R)-4-(4-((4-(4-(4-(6-amino-5-(1-(2,6-dichloro-3-fluorophenyl)ethoxy)pyridin-3-yl)-1H-pyrazol-1-yl)piperidine-1-carbonyl)piperidin-1-yl)methyl)phenyl)-5-(2,4-dihydroxy-5-isopropylphenyl)-N-ethyl-4H-1,2,4-triazole-3-carboxamide] | 77 |
| CC(C)c1cc(-c2nnc(O)n2-c2ccc(CN3CCN(CCN(C)C(=O)Nc4cccc5c4CN(C4CCC(=O)NC4=O)C5=O)CC3)cc2)c(O)cc1O (stereo not drawn) [SDC-TRAP-0105, 1-(2-(4-(4-(3-(2,4-dihydroxy-5-isopropylphenyl)-5-hydroxy-4H-1,2,4-triazol-4-yl)benzyl)piperazin-1-yl)ethyl)-3-(2-(2,6-dioxopiperidin-3-yl)-1-oxoisoindolin-4-yl)-1-methylurea] | > 10000 |
| CC(C)c1cc(-c2nnc(O)n2-c2ccc3c(ccn3CCC3CCN(C(=O)ONC(=O)CCCCCCC(=O)Nc4ccccc4)CC3)c2)c(O)cc1O [SDC-TRAP-0118, N1-((4-(2-(5-(3-(2,4-dihydroxy-5-isopropylphenyl)-5-hydroxy-4H-1,2,4-triazol-4-yl)-1H-indol-1-yl)ethyl)piperidine-1-carbonyl)oxy)-N8-phenyloctanediamide] | 2350 |
| CC(C)c1cc(-c2nnc(O)n2-c2ccc(N3CCN(CC(=O)Nc4cccc5c4CN(C4CCC(=O)NC4=O)C5=O)CC3)cc2)c(O)cc1O (stereo not drawn) [SDC-TRAP-0110, 2-(4-(4-(3-(2,4-dihydroxy-5-isopropylphenyl)-5-hydroxy-4H-1,2,4-triazol-4-yl)phenyl)piperazin-1-yl)-N-(2-(2,6-dioxopiperidin-3-yl)-1-oxoisoindolin-4-yl)acetamide] | > 10000 |
| CC(C)c1cc(-c2nnc(O)n2-c2ccc3c(ccn3CCOCCNC(=O)O[C@H]3CC[C@@]4(C)C(=CC[C@@H]5[C@@H]4CC[C@]4(C)C(c6cccnc6)=CC[C@@H]54)C3)c2)c(O)cc1O [SDC-TRAP-0151, (3S,8R,9S,10R,13S,14S)-10,13-dimethyl-17-(pyridin-3-yl)-2,3,4,7,8,9,10,11,12,13,14,15-dodecahydro-1H-cyclopenta[a]phenanthren-3-yl (2-(2-(5-(3-(2,4-dihydroxy-5-isopropylphenyl)-5-hydroxy-4H-1,2,4-triazol-4-yl)-1H-indol-1-yl)ethoxy)ethyl)carbamate] | 1190 |
| CC(C)c1cc(-c2nnc(O)n2-c2ccc(CN3CCN(C(=O)c4cnc(C(=O)Nc5cccc6c5CN(C5CCC(=O)NC5=O)C6=O)cn4)CC3)c(F)c2)c(O)cc1O (stereo not drawn) [SDC-TRAP-0160, 5-(4-(4-(3-(2,4-dihydroxy-5-isopropylphenyl)-5-hydroxy-4H-1,2,4-triazol-4-yl)-2-fluorobenzyl)piperazine-1-carbonyl)-N-(2-(2,6-dioxopiperidin-3-yl)-1-oxoisoindolin-4-yl)pyrazine-2-carboxamide] | 239 |
